Experimental data: ChEMBL document CHEMBL3991601, “The target landscape of clinical kinase drugs” (Science, 2017)
Activity calls are given as the source filed them. On the calls: in the data inactive means no Kd found up to 30 µM.

Columns and labels:
[1] = biological target: Serine/threonine-protein kinase 24 (Homo sapiens, UniProt Q9Y6E0)
[2] = biological target: Serine/threonine-protein kinase N3 (Homo sapiens, UniProt Q6P5Z2)
[3] = biological target: Dual specificity protein kinase CLK4 (Homo sapiens, UniProt Q9HAZ1)
[4] = biological target: T1, Cyclin-dependent kinase-like 5 (Homo sapiens, UniProt O76039)
T1 sequence (O76039 whole entry): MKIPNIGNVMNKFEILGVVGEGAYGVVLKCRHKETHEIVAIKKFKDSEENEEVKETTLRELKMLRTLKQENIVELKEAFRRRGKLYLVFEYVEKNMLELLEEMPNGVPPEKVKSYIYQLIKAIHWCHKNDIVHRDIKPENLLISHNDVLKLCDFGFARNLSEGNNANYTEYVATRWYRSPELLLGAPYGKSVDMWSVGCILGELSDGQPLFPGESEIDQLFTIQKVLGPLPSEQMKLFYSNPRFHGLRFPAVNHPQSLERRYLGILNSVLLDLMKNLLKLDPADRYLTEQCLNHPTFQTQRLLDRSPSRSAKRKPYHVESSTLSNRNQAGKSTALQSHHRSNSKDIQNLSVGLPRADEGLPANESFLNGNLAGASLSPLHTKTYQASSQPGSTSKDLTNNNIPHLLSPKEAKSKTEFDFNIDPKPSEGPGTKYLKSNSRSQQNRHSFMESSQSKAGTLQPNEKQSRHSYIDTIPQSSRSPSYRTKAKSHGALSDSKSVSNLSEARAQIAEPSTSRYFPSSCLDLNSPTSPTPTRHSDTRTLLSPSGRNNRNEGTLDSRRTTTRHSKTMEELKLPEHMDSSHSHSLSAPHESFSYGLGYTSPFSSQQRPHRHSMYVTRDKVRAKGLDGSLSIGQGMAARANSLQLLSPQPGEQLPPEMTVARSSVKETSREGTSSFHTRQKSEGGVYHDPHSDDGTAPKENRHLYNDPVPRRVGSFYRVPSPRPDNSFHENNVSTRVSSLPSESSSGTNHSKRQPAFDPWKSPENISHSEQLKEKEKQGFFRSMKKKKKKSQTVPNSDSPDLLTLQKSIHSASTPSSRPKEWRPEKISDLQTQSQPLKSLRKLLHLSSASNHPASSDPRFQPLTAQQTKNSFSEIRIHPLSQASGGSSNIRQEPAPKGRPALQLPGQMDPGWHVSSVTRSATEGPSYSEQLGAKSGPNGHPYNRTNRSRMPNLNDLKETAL

[5] = biological target: Serine/threonine-protein kinase ATR (Homo sapiens, UniProt Q13535)
Misshapen-like kinase 1 = Misshapen-like kinase 1 (Homo sapiens, UniProt Q8N4C8)
[6] = biological target: T2, Dual specificity protein kinase TTK (Homo sapiens, UniProt P33981)
T2 sequence (P33981 whole entry): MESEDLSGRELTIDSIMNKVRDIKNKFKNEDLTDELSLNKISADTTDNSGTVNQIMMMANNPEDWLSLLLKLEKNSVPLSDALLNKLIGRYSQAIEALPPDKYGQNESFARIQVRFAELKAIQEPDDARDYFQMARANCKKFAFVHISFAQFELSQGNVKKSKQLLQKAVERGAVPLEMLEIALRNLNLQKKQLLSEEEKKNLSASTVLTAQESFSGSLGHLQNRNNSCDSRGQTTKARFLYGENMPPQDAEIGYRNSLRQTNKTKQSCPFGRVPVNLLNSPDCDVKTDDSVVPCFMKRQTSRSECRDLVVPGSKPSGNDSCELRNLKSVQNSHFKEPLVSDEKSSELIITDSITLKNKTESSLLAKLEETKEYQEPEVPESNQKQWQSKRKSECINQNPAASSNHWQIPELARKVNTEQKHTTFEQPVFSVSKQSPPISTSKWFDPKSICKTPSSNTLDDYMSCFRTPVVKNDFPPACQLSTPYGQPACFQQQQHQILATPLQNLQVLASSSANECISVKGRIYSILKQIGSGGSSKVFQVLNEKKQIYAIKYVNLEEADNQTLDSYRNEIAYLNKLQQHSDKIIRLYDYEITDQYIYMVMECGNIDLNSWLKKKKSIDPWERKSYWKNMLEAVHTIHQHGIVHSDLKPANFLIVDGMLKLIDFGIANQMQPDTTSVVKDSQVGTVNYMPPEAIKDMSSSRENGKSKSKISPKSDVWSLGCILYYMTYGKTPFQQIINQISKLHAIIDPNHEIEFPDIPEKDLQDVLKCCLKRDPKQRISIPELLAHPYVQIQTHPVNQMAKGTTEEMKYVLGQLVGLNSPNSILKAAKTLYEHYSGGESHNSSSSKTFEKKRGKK

Sequence of Dual specificity protein kinase CLK4 (Q9HAZ1 whole entry): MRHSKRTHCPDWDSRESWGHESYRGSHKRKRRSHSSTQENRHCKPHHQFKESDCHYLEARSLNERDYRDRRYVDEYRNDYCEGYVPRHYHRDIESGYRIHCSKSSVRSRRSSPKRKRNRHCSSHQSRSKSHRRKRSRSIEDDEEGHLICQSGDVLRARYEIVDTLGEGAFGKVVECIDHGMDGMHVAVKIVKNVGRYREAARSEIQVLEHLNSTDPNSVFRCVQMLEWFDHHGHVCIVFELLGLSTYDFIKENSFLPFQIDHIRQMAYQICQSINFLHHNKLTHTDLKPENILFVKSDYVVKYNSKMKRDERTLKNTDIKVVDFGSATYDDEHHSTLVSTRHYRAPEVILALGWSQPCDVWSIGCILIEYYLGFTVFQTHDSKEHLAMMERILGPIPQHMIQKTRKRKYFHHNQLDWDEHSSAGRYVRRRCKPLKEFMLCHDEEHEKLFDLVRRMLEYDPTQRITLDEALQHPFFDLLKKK
Sequence of Serine/threonine-protein kinase N3 (Q6P5Z2 whole entry): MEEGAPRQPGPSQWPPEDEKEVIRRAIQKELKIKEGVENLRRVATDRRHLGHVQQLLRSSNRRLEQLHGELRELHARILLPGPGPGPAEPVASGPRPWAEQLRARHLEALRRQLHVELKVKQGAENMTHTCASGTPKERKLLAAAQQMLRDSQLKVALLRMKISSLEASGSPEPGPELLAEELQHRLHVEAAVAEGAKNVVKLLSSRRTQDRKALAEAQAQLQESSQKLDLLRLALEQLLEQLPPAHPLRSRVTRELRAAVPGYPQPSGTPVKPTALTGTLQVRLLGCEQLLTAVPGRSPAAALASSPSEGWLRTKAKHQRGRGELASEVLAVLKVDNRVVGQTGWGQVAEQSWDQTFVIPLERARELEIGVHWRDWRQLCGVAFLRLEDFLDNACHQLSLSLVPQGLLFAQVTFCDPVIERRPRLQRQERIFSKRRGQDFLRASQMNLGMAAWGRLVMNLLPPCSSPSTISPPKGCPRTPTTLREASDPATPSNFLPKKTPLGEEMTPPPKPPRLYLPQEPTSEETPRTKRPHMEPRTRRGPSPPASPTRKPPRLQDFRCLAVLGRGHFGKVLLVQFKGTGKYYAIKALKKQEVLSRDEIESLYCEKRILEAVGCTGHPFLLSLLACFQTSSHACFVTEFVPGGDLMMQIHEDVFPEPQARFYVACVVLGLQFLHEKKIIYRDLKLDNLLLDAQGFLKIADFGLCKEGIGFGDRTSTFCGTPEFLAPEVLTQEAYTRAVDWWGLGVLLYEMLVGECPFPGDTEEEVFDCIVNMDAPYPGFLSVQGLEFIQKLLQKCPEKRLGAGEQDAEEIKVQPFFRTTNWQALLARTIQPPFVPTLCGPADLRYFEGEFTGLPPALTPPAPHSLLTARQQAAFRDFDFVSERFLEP
Sequence of Serine/threonine-protein kinase 24 (Q9Y6E0 whole entry): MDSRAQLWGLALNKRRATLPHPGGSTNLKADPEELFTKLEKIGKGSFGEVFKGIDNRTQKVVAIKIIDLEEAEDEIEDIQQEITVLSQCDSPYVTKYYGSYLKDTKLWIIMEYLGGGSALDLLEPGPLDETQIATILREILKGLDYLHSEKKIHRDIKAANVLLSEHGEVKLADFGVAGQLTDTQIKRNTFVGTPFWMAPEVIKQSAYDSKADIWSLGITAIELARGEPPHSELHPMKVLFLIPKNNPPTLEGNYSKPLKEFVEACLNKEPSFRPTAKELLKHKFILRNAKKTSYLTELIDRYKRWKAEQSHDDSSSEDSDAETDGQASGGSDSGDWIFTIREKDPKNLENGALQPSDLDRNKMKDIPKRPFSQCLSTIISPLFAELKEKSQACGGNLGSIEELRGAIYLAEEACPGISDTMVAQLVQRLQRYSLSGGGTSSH
Sequence of Serine/threonine-protein kinase ATR (Q13535 whole entry): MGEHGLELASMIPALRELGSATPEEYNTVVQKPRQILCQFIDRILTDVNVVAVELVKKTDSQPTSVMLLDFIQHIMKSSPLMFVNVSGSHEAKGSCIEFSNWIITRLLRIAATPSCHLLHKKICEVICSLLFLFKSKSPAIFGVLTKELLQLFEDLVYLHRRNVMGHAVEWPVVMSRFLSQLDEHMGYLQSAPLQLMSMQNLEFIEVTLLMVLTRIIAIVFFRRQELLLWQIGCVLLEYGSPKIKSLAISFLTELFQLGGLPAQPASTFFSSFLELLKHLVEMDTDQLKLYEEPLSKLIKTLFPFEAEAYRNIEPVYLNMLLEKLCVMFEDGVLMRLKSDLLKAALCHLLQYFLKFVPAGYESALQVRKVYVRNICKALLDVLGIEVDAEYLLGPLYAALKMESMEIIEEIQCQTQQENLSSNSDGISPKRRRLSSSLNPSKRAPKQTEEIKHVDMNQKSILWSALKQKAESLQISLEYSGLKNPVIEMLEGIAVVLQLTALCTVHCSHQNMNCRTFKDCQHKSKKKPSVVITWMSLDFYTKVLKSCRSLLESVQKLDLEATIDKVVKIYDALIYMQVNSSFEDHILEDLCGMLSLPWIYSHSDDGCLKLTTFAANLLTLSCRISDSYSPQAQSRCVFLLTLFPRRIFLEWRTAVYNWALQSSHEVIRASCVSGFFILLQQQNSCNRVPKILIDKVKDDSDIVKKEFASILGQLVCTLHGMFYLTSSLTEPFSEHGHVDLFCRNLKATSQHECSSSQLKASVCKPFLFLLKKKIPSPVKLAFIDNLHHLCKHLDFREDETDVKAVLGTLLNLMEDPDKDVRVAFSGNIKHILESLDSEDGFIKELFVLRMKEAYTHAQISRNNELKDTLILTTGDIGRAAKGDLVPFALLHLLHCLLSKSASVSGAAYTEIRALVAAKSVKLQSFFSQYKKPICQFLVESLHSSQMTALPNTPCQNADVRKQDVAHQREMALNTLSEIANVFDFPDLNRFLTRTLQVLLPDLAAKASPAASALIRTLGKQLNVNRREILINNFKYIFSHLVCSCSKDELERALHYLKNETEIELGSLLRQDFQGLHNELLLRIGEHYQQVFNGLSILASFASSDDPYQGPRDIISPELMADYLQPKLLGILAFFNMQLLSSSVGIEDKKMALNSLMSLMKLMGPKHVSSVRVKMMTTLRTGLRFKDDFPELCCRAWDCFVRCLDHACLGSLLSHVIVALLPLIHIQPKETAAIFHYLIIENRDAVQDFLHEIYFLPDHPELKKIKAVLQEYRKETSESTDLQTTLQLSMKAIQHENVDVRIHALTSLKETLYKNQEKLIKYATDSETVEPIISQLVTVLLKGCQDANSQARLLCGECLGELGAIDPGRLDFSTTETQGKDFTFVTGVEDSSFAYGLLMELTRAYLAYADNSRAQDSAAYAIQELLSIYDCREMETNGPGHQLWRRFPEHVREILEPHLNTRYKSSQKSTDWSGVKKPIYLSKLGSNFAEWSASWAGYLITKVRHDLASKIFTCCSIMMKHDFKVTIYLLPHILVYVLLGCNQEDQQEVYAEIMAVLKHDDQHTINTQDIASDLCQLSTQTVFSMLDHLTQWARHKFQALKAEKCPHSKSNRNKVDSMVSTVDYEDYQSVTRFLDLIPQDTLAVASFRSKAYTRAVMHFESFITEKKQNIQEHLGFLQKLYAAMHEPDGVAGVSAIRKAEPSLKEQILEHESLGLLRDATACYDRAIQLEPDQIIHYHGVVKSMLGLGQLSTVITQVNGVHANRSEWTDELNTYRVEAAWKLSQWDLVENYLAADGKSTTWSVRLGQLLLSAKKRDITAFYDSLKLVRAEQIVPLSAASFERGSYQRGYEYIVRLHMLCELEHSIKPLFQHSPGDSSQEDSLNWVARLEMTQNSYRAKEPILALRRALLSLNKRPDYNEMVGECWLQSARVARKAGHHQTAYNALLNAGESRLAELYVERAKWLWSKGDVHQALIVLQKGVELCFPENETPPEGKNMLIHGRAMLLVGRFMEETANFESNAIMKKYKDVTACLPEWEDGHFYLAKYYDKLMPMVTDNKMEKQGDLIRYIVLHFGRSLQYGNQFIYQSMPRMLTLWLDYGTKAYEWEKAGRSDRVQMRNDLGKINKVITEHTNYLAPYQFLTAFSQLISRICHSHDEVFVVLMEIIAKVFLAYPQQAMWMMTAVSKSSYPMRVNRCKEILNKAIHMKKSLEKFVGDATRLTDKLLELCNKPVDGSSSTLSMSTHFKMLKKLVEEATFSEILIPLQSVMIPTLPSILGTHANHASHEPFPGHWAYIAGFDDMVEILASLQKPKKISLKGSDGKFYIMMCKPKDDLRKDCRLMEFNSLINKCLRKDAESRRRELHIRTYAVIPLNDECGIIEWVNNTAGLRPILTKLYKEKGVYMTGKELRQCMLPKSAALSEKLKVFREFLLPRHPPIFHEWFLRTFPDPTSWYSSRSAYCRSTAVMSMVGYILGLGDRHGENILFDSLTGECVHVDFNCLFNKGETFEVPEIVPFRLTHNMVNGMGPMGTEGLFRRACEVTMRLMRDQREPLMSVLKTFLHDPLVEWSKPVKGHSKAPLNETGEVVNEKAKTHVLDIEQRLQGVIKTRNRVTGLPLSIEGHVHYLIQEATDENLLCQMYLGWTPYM

Compound | Kd [1] | Kd [2] | Kd [3] | Kd [4] | Kd [5] | Kd (Misshapen-like kinase 1) | Kd [6]
C[C@@H](Oc1cc(C(=O)Nc2ccc(C(=O)N3CCN(C)CC3)cc2)nnc1N)c1c(Cl)ccc(F)c1Cl | > 30 µM (inactive) | – | – | – | – | – | –
CC(=O)c1cnc2ccc(-c3cc(Cl)c(O)c(Cl)c3)nc2c1N[C@H]1CC[C@H](CN(C)C)CC1 | – | > 30 µM (inactive) | – | – | – | – | –
C=CC(=O)N1CCC[C@H](n2c(=O)n(-c3ccc(Oc4ccccc4)cc3)c3c(N)ncnc32)C1 | > 30 µM (inactive) | > 30 µM (inactive) | > 30 µM (inactive) | > 30 µM (inactive) | – | – | –
COCc1c(-c2ccc(NC(=O)Nc3cc(C(F)(F)F)ccc3F)c(F)c2)c2c(N)ncnn2c1CN1CCOCC1 | > 30 µM (inactive) | > 30 µM (inactive) | > 30 µM (inactive) | > 30 µM (inactive) | > 30 µM (inactive) | – | –
Nc1ncnc2c1c(-c1cccc(OCc3ccccc3)c1)cn2[C@H]1C[C@@H](CN2CCC2)C1 [AEW-541] | – | 0.023 µM | – | – | 0.005 µM | > 30 µM (inactive) | –
COc1cc(Nc2ncc3c(n2)-c2ccc(Cl)cc2C(c2c(F)cccc2OC)=NC3)ccc1C(=O)O [ALISERTIB] | > 30 µM (inactive) | > 30 µM (inactive) | – | – | – | – | > 30 µM (inactive)
Cc1nc(NC(=O)N2CCC[C@H]2C(N)=O)sc1-c1ccnc(C(C)(C)C(F)(F)F)c1 [ALPELISIB] | – | – | > 30 µM (inactive) | – | > 30 µM (inactive) | > 30 µM (inactive) | –
Cc1csc(-c2nnc(Nc3ccc(Oc4ncccc4-c4ccnc(N)n4)cc3)c3ccccc23)c1 [AMG-900] | > 30 µM (inactive) | – | > 30 µM (inactive) | – | – | – | > 30 µM (inactive)
O=C(Nc1c[nH]nc1-c1nc2cc(CN3CCOCC3)ccc2[nH]1)NC1CC1 [AT-9283] | – | > 30 µM (inactive) | – | > 30 µM (inactive) | – | > 30 µM (inactive) | > 30 µM (inactive)
COc1cc([C@@H]2c3cc4c(cc3[C@H](O)[C@H]3COC(=O)[C@@H]23)OCO4)cc(OC)c1OC [AXL-1717] | > 30 µM (inactive) | – | – | – | – | – | > 30 µM (inactive)
NC(=O)Nc1cc(-c2cccc(F)c2)sc1C(=O)N[C@H]1CCCNC1 [AZD-7762] | – | – | > 30 µM (inactive) | – | – | – | > 30 µM (inactive)
Cc1cc(C(=O)NOCCO)c(Nc2ccc(I)cc2F)n(C)c1=O [AZD-8330] | – | > 30 µM (inactive) | – | > 30 µM (inactive) | – | > 30 µM (inactive) | > 30 µM (inactive)
Cn1cnc2c(F)c(Nc3ccc(Br)cc3F)c(C(=O)NOCCO)cc21 [BINIMETINIB] | > 30 µM (inactive) | > 30 µM (inactive) | > 30 µM (inactive) | – | > 30 µM (inactive) | – | –
CCn1c(C(=O)N(C2CC2)C2CC2)cc2c3c(ncn3C)c(Nc3cc(C)n(C)n3)nc21 [BMS-911543] | > 30 µM (inactive) | – | > 30 µM (inactive) | > 30 µM (inactive) | > 30 µM (inactive) | – | > 30 µM (inactive)
COc1c(OCCCN2CCOCC2)ccc2c1N=C(NC(=O)c1cnc(N)nc1)N1CCN=C21 [COPANLISIB] | > 30 µM (inactive) | > 30 µM (inactive) | > 30 µM (inactive) | > 30 µM (inactive) | > 30 µM (inactive) | > 30 µM (inactive) | –
Cn1cc(C2=C(c3cn(C4CCN(Cc5ccccn5)CC4)c4ccccc34)C(=O)NC2=O)c2ccccc21 [ENZASTAURIN] | – | – | – | – | > 30 µM (inactive) | – | –
Cc1nc2cc(-n3ncc(C(=O)c4cc5ccccc5[nH]4)c3N)ccc2[nH]1 [FGFR INHIBITOR DEBIO 1347] | > 30 µM (inactive) | – | – | > 30 µM (inactive) | – | – | –

Compound | Kd [1] | Kd [2] | Kd [3] | Kd [4] | Kd [5] | Kd (Misshapen-like kinase 1) | Kd [6]
O=C(Nc1nc2cccc(-c3ccc(CN4CCS(=O)(=O)CC4)cc3)n2n1)C1CC1 [FILGOTINIB] | > 30 µM (inactive) | – | > 30 µM (inactive) | – | > 30 µM (inactive) | > 30 µM (inactive) | –
Cc1cccc(-c2nn3c(c2-c2ccnc4ccc(C(N)=O)cc24)CCC3)n1 [GALUNISERTIB] | > 30 µM (inactive) | – | > 30 µM (inactive) | – | > 30 µM (inactive) | 0.018 µM | > 30 µM (inactive)
CCn1cc(-c2ccnc3[nH]c(-c4cccc(CN(C)C)c4)cc23)c(-c2ccc(NC(=O)N(C)C)cc2)n1 [GSK-1070916] | – | > 30 µM (inactive) | > 30 µM (inactive) | > 30 µM (inactive) | – | – | > 30 µM (inactive)
O=C(Nc1cc(C(F)(F)F)cc(C(F)(F)F)c1)c1cc(Cl)ccc1O [IMD-0354] | > 30 µM (inactive) | – | – | > 30 µM (inactive) | > 30 µM (inactive) | > 30 µM (inactive) | > 30 µM (inactive)
CNC(=O)c1cccc2cc(Oc3ccnc4cc(OCC5(N)CC5)c(OC)cc34)ccc12 [LUCITANIB] | > 30 µM (inactive) | > 30 µM (inactive) | – | > 30 µM (inactive) | > 30 µM (inactive) | > 30 µM (inactive) | > 30 µM (inactive)
NC1(c2ccc(-c3nc4ccn5c(=O)[nH]nc5c4cc3-c3ccccc3)cc2)CCC1 [MK-2206] | > 30 µM (inactive) | > 30 µM (inactive) | – | – | – | > 30 µM (inactive) | –
CN(C[C@@H]1COCCO1)S(=O)(=O)Nc1ccc2ccc3ncc(-c4cnn(C)c4)cc3c(=O)c2c1 [MK-2461] | > 30 µM (inactive) | – | – | – | – | > 30 µM (inactive) | –
Cn1cc(-c2cnc3ccc4ccc(CS(=O)(=O)NCc5ccccn5)cc4c(=O)c3c2)cn1 [MK-8033] | – | > 30 µM (inactive) | > 30 µM (inactive) | – | > 30 µM (inactive) | – | –
FC(F)(F)c1ccc(/C=C/c2nc(COc3ccc(CCCCn4ccnn4)cc3)co2)cc1 [MUBRITINIB] | > 30 µM (inactive) | – | > 30 µM (inactive) | > 30 µM (inactive) | > 30 µM (inactive) | 1.77 µM (active) | > 30 µM (inactive)
Cc1[nH]c(/C=C2\C(=O)Nc3ccccc32)c(C)c1CCC(=O)O [ORANTINIB] | – | > 30 µM (inactive) | – | > 30 µM (inactive) | – | – | > 30 µM (inactive)
NC(=O)c1c(OCc2c(F)cc(Br)cc2F)nsc1NC(=O)NCCCCN1CCCC1 [OSI-632] | – | > 30 µM (inactive) | – | > 30 µM (inactive) | > 30 µM (inactive) | – | > 30 µM (inactive)
CCOc1cc2ncc(C#N)c(Nc3ccc(F)c(Cl)c3)c2cc1NC(=O)/C=C/CN(C)C [PELITINIB] | – | > 30 µM (inactive) | – | – | – | > 30 µM (inactive) | > 30 µM (inactive)
CC(=O)NCC(=O)N1[C@@H]2CC[C@H]1c1ccc(Nc3ncc(C(F)(F)F)c(NC4CCC4)n3)cc12 [PF-03814735] | 0.019 µM | – | – | – | – | – | > 30 µM (inactive)
Cn1ncc(Cl)c1-c1cc(C(=O)N[C@H](CN)Cc2ccc(F)c(F)c2)oc1Cl [UPROSERTIB] | > 30 µM (inactive) | – | – | – | – | – | > 30 µM (inactive)
CC(C)c1cc(CNc2nc(Nc3cc(C4CC4)[nH]n3)cc(N3CCN(C)CC3)n2)on1 [XL-228] | > 30 µM (inactive) | – | > 30 µM (inactive) | > 30 µM (inactive) | > 30 µM (inactive) | – | > 30 µM (inactive)
C[C@@H](N)c1ccc(C(=O)Nc2ccnc3[nH]ccc23)cc1 [Y-39983] | > 30 µM (inactive) | > 30 µM (inactive) | > 30 µM (inactive) | > 30 µM (inactive) | > 30 µM (inactive) | – | –
